Test results from patent publication US5057146A (priority 1986, dated 1991).
Like-named read-outs stand apart in the source and are kept apart here.

How the values were obtained:
Venturia inaequalis = test: foliar fungal disease control, Venturia inaequalis on apple; type: in vivo
Experimental: (§1) The compounds were tested against a variety of foliar fungal diseases of plants. The technique employed was as follows.
(§2) The plants were grown in John Innes Potting Compost (No 1 or 2) in 4 cm diameter minipots. The test compounds were formulated either by bead milling with aqueous Dispersol T or as a solution in acetone or acetone/ethanol which was diluted to the required concentration immediately before use. […] The sprays were applied to maximum retention and the root drenches to a final concentration equivalent to approximately 40 ppm a.i./dry soil. Tween 20, to give a final concentration of 0.05%, was added when the sprays were applied to cereals.
(§3) For most of the tests the compound was applied to the soil (roots) and to the foliage (by spraying) one or two days before the plant was inoculated with the disease. An exception was the test on Erysiphe graminis in which the plants were inoculated 24 hours before treatment. Foliar pathogens were applied by spray as spore suspensions onto the leaves of test plants. After inoculation, the plants were put into an appropriate environment to allow infection to proceed and then incubated until the disease was ready for assessment. The period between inoculation and assessment varied from four to fourteen days according to the disease and environment.
(§4) The disease control was recorded by the following grading: […]

Cercospora arachidicola = test: foliar fungal disease control, Cercospora arachidicola on peanut; type: in vivo
Experimental: as §1, §2, §3, §4

Phytophthora infestans = type: in vivo, Phytophthora infestans (tomato)
Erysiphe graminis hordei = test: foliar fungal disease control, Erysiphe graminis hordei on barley; type: in vivo; conditions: inoculated 24 hours before treatment
Experimental: as §1, §2, §3, §4

Puccinia recondita = test: foliar fungal disease control, Puccinia recondita on wheat; type: in vivo
Experimental: as §1, §2, §3, §4

Plasmopara viticola = test: foliar fungal disease control, Plasmopara viticola on vine; type: in vivo
Experimental: as §1, §2, §3, §4

Pyricularia oryzae = type: in vivo, Pyricularia oryzae (rice)
[1] = 100 ppm foliar spray plus root drench approx. 40 ppm a.i./dry soil

Row | SMILES | disease control grading, Venturia inaequalis (apple) (Venturia inaequalis; [1]) | disease control grading, Cercospora arachidicola (peanut) (Cercospora arachidicola; [1]) | disease control grading, Phytophthora infestans (tomato) (Phytophthora infestans; [1]) | disease control grading, Erysiphe graminis hordei (barley) (Erysiphe graminis hordei; [1]) | disease control grading, Puccinia recondita (wheat) (Puccinia recondita; [1]) | disease control grading, Plasmopara viticola (vine) (Plasmopara viticola; [1]) | disease control grading, Pyricularia oryzae (rice) (Pyricularia oryzae; [1]) | disease control grading, Venturia inaequalis (apple) (Venturia inaequalis; 25 ppm foliar spray only) | disease control grading, Cercospora arachidicola (peanut) (Cercospora arachidicola; 25 ppm foliar spray only) | disease control grading, Phytophthora infestans (tomato) (Phytophthora infestans; 25 ppm foliar spray only) | disease control grading, Erysiphe graminis hordei (barley) (Erysiphe graminis hordei; 25 ppm foliar spray only) | disease control grading, Puccinia recondita (wheat) (Puccinia recondita; 25 ppm foliar spray only) | disease control grading, Plasmopara viticola (vine) (Plasmopara viticola; 25 ppm foliar spray only) | disease control grading, Pyricularia oryzae (rice) (Pyricularia oryzae; 25 ppm foliar spray only)
1 | CO/C=C(/C(=O)OC)c1ccccc1Oc1ncc(C(F)(F)F)cc1[N+](=O)[O-] [Compound 129 (Table I)] | 4 | 0 (60-100% of disease on untreated plants) | 0 (60-100% of disease on untreated plants) | 4 | 0 (60-100% of disease on untreated plants) | 0 (60-100% of disease on untreated plants) | 0 (60-100% of disease on untreated plants) |  |  |  |  |  |  | 
2 | CO/C=C(/C(=O)OC)c1ccccc1[S+]([O-])c1ccc(Br)cn1 (stereo not drawn) [Compound 1 (Table III), (E)--methyl 2-(2'-(5"-bromopyridin-2"-ylsulphinyl)phenyl]-3-methoxyacrylate] |  |  |  |  |  |  |  | 3 (trace-5% of disease on untreated plants) | 0 (60-100% of disease on untreated plants) | 0 (60-100% of disease on untreated plants) | 0 (60-100% of disease on untreated plants) | 0 (60-100% of disease on untreated plants) | 0 (60-100% of disease on untreated plants) | 0 (60-100% of disease on untreated plants)
3 | CO/C=C(/C(=O)OC)c1ccccc1Oc1cc(Cl)nc(Cl)n1 [Compound 140 (Table I)] | 0 (60-100% of disease on untreated plants) | 0 (60-100% of disease on untreated plants) | 0 (60-100% of disease on untreated plants) | 0 (60-100% of disease on untreated plants) | 2 (6-25% of disease on untreated plants) | 4 | 0 (60-100% of disease on untreated plants) |  |  |  |  |  |  | 
